Source: patent US12264173B2 (GILEAD SCIENCES, INC., priority 2020, dated 2025)
Where two headings read alike, the source gives them in different places.

Assays:
Format in all cases: cell-based
[1] = tested on: RSV A2; experiment: RSV NHBE EC50 (RSV A2 antiviral assay in NHBE cells); conditions: Table 3, NHBE cells, RSV A2, 4 days, read-out: RSV NHBE EC50
In short: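 Read-out: CellTiter-Glo luminescence of cell viability after 4 days at 37° C. Primary NHBE cells, 7,500/well, 3-fold compound dilutions, 0.05% DMSO, infected with RSV A2 (1×10^4.5 TCID/mL).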

[2] = tested on: DENV2 replicon; experiment: DENV-2 Huh-7 Rep EC50 (replicon luminescence)
In short: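 EC50 derived from luminescence dose-response, normalised to DMSO-only 0% inhibition wells, after 1.5 h with EnduRen substrate. Compounds were first exposed for 48 h at 37° C to DENV2 replicon Huh-7 cells (5,000/well).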

[3] = tested on: RSV strain A2; experiment: microbe, parasite or virus in culture; conditions: Table 3, HEp-2 cells, RSV A2, 4 days, read-out: RSV HEp-2 EC50
In short: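 Cytopathic-effect protection assay: HEp-2 cells (50,000/mL) infected with pre-titered RSV A2 onto 3-fold serial compound dilutions, incubated 4 days at 37° C. Cell viability read by CellTiter-Glo luminescence; percent inhibition derived against 0% and 100% virus-inhibition controls.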

[4] = tested on: HRV16; experiment: HRV16 HeLa EC50 (cytopathic effect in H1-HeLa cells)
In short: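 Read-out is luminescent cell viability (CellTiter-Glo) after 96 h of infection at 33 °C, scaled between uninfected and infected-untreated wells. Before infection with titrated virus, compounds went onto H1-HeLa cells as triplicate 3-fold dilution series.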

[5] = human respiratory syncytial virus, NHBE, 96 h
[6] = Dengue virus, DENV2, Huh-7, 48 h, read-out: DENV-2 REP Huh7 EC50, Table 3, Huh-7 DENV2 replicon cells, 48 hours
[7] = human respiratory syncytial virus, HEp-2, 96 h
[8] = 96 h, Table 3; H1-HeLa cells, 96 h; read-out: HRV16 HeLa EC50
[9] = Dengue virus, DENV2, Huh-7, 48 h, read-out: DENV-2 REP Huh7 EC50

Row | SMILES | EC50 [1, 5] | EC50 [2, 6] | EC50 [3, 7] | EC50 [4, 8] | EC50 [2, 9] | EC50 [1] | EC50 ([2]; Table 3, Huh-7 DENV2 replicon cells, 48 hours, read-out: DENV-2 REP Huh7 EC50) | EC50 [3] | EC50 ([4]; Table 3; H1-HeLa cells, 96 h; read-out: HRV16 HeLa EC50)
1 | CSCCOP(=O)(N[C@@H](C)C(=O)OC(C)C)OC[C@@]1(C#N)O[C@@H](c2ccc3c(N)ncnn23)[C@H](OC(=O)C(C)C)[C@@H]1OC(=O)C(C)C (stereo partly drawn) [Example 213, (2R,3S,4S,5S)-5-(4-aminopyrrolo[2,1-f][1,2,4]triazin-7-yl)-2-cyano-2-((((((S)-1-isopropoxy-1-oxopropan-2-yl)amino)(2-(methylthio)ethoxy)phosphoryl)oxy)methyl) tetrahydrofuran-3,4-diyl bis(2-methylpropanoate)] | 2.25 µM | 23 µM | 11.8 µM | 13.1 µM |  |  |  |  | 
2 | COCCOP(=O)(N[C@@H](C)C(=O)OC(C)C)OC[C@@]1(C#N)O[C@@H](c2ccc3c(N)ncnn23)[C@H](OC(=O)C(C)C)[C@@H]1OC(=O)C(C)C (stereo partly drawn) [Example 214, (2R,3S,4S,5S)-5-(4-aminopyrrolo[2,1-f][1,2,4]triazin-7-yl)-2-cyano-2-((((((S)-1-isopropoxy-1-oxopropan-2-yl)amino)(2-methoxyethoxy)phosphoryl)oxy)methyl) tetrahydrofuran-3,4-diyl bis(2-methylpropanoate)] | > 3.89 µM | > 50 µM | > 41.7 µM | 31.3 µM |  |  |  |  | 
3 | CCC(=O)O[C@H]1[C@H](c2ccc3c(N)ncnn23)O[C@](C#N)(COP(=O)(N[C@@H](C)C(=O)OC(C)C)Oc2ccc(OCCOC)cc2)[C@H]1OC(=O)CC (stereo partly drawn) [Example 215, (2R,3S,4S,5S)-5-(4-aminopyrrolo[2,1-f][1,2,4]triazin-7-yl)-2-cyano-2-((((((S)-1-isopropoxy-1-oxopropan-2-yl)amino)(4-(2-methoxyethoxy)phenoxy)phosphoryl)oxy)methyl)tetrahydrofuran-3,4-diyl dipropionate] | 0.142 µM |  | 0.378 µM | 1.02 µM | 27.2 µM |  |  |  | 
4 | CC(C)OC(=O)[C@H](C)N[P@](=O)(OC[C@@]1(C#N)O[C@@H](c2ccc3c(N)ncnn23)[C@H](OC(=O)CN2CCOCC2)[C@@H]1OC(=O)CN1CCOCC1)Oc1ccccc1 [Example 216, (2R,3S,4S,5S)-5-(4-aminopyrrolo[2,1-f][1,2,4]triazin-7-yl)-2-cyano-2-((((S)-(((S)-1-isopropoxy-1-oxopropan-2-yl)amino)(phenoxy)phosphoryl)oxy)methyl) tetrahydrofuran-3,4-diyl bis(2-morpholinoacetate)] | 3.87 µM |  | 0.262 µM | 3.5 µM | 31.2 µM |  |  |  | 
5 | CCC(=O)O[C@H]1[C@H](c2ccc3c(N)ncnn23)O[C@](C#N)(COP(=O)(N[C@@H](C)C(=O)OC(C)C)Oc2ccc(C[C@H](N)C(=O)OC)cc2)[C@H]1OC(=O)CC (stereo partly drawn) [Example 217, (2R,3S,4S,5S)-2-((((4-((S)-2-amino-3-methoxy-3-oxopropyl)phenoxy)(((S)-1-isopropoxy-1-oxopropan-2-yl)amino)phosphoryl)oxy)methyl)-5-(4-aminopyrrolo[2,1-f][1,2,4]triazin-7-yl)-2-cyanotetrahydrofuran-3,4-diyl dipropionate] | 2.06 µM |  | 9.84 µM | 11.9 µM | > 50 µM |  |  |  | 
6 | CC(C)C(=O)O[C@H]1[C@H](c2ccc3c(/N=C/N(C)C)ncnn23)O[C@](C#N)(COP(=O)(N[C@@H](C)C(=O)OC2CCOCC2)Oc2ccccc2)[C@H]1OC(=O)C(C)C (stereo partly drawn) [Example 218, (2R,3S,4S,5S)-2-cyano-5-(4-(((E)-(dimethylamino)methylene)amino)pyrrolo[2,1-f][1,2,4]triazin-7-yl)-2-((((((S)-1-oxo-1-((tetrahydro-2H-pyran-4-yl)oxy)propan-2-yl)amino)(phenoxy)phosphoryl)oxy)methyl) tetrahydrofuran-3,4-diyl bis(2-methylpropanoate)] |  |  |  |  |  | 0.017 µM | 5.51 µM | 0.03 µM | 0.112 µM
